Reference: publication PMC9578396, “Intrinsic Antibacterial Activity of Xeruborbactam In Vitro: Assessing Spectrum and Mode of Action” (Antimicrobial Agents and Chemotherapy, 2022)
In brackets after ≈: the same amount, converted by molar mass. Where two headings read alike, the source gives them in different places.

Key:
Streptococcus pneumoniae = experiment: MIC, Streptococcus pneumoniae; assay type: cell-based
Source text: (§1) Bacterial isolates were subjected to broth microdilution susceptibility testing, performed according to Clinical and Laboratory Standards Institute (CLSI) methods ([46]), using panels prepared in-house. Meropenem was purchased from Sandoz, and all other antibiotics were from Sigma-Aldrich. Xeruborbactam was synthesized at Qpex Biopharma, San Diego, CA. Avibactam was purchased from eNovation Chemicals LLC, Bridgewater, NJ, USA; zidebactam was from MedKoo Biosciences, Inc., Morrisville, NC, and nacubactam was from Advanced ChemBlocks, Hayward, CA. Durlobactam was synthesized at Acme Bioscience, Palo Alto, CA, USA.

Enterococcus faecalis = experiment: MIC, Enterococcus faecalis; assay type: cell-based
Source text: as §1

PBP1a [1] = target: PBP1a (Acinetobacter baumannii, UniProt A0ABX6CK30); experiment: Gel-based Bocillin FL competition PBP binding assay
Description: (§2) Ten milliliters of overnight bacterial culture was inoculated in 1 L of LB medium and grown to an OD600 of 0.7 to 0.9. The cell pellet was washed once with 50 mL of solution containing 100 mM Na-phosphate at pH 7.0 and 100 mM NaCl and resuspended in 10 mL of the same buffer with one tablet of EDTA-free mini-protease inhibitor and 10 mg of lysozyme. Cell suspensions were incubated for 45 min at 37°C, and then 200 μL of DNase I was added along with MgSO4 (to a final concentration of 10 mM), followed by three cycles of freeze-thawing (10 min and 20 min, respectively). Four cycles of sonication at maximum power were performed next, each cycle lasting for 30 s with 1 min on ice between cycles. The cell suspension was centrifuged at 12,000 × g for 10 min at 4°C. The supernatant was collected and centrifuged at 100,000 × g for 45 min at 4°C. The pellet was washed three times with 10 mL of 100 mM Na-phosphate, pH 7.0, by resuspension and subsequent centrifugation at 100,000 × g for 10 min at 4°C. The pellet was finally resuspended in 1.5 mL of 100 mM Na-phosphate, pH 7.0, and passed several times through a Dounce homogenizer (tight pestle). Membrane preparations were aliquoted and kept at −80°C.
(§3) Five microliters of total bacterial membrane preparation was mixed with 5 μL of a test compound at a desired concentration in 100 mM Na-phosphate buffer, pH 7.0. Incubation of bacterial membrane preparations with control beta-lactams was performed for 10 min at 30°C; xeruborbactam was incubated with membrane preparations for 1 h at 30°C. Five microliters of 150 μM Bocillin FL fluorescent probe (Thermo Fisher Scientific) was added, and the reaction mixture was incubated for an additional 10 min at 30°C in the case of beta-lactams or for 20 min on ice (0°C) in the case of xeruborbactam. We believe that the 0°C temperature is required to prevent displacement of xeruborbactam from its complex by the Bocillin probe. At the end of the incubation step, 15 μL of 2× SDS sample loading buffer was added, and the reaction mixture was incubated for 5 min at 95°C. Twenty-five microliters of the reaction mixture was then loaded on an 8% SDS Tris-glycine gel (Thermo Fisher Scientific). At the end of the run, the gel was briefly rinsed with water and fixed in 10% acetic acid, 40% methanol for 20 min. After an additional wash in water for 30 min, the gel was scanned on a Typhoon Trio+ Imager using a blue laser filter (excitation, 488 nm, and emission, 520 nm). Densitometry of the gel images was performed using ImageQuant software (Molecular Dynamics). IC50 values were calculated with Prism software (GraphPad).

PBP1a [2] = target: T1, PBP1a (Escherichia coli, UniProt P02918); experiment: as above
T1 construct: endogenous in cells; host or cells: Escherichia coli ECM5497 (MG1655), total membrane preparation
Description: as §2, §3

PBP1a [3] = target: PBP1a (Klebsiella pneumoniae, UniProt A0A0H3GZF1); experiment: as above
Description: as §2, §3

PBP1b = target: T2, PBP1b (Escherichia coli, UniProt P02919); experiment: as above
T2 construct: endogenous in cells; host or cells: Escherichia coli ECM5497 (MG1655), total membrane preparation
Description: as §2, §3

PBP2 = PBP2 (Klebsiella pneumoniae, UniProt A6T696); experiment: as above
Description: as §2, §3

PBP3 [4] = target: PBP3 (Acinetobacter baumannii, UniProt A0ABX6CK25); experiment: as above
Description: as §2, §3

PBP3 [5] = target: PBP3 (Klebsiella pneumoniae, UniProt A0A0H3GN85); experiment: as above
Description: as §2, §3

[6] = Streptococcus pneumoniae, sp001, read-out: MIC
[7] = Streptococcus pneumoniae, sp002, read-out: MIC
[8] = Streptococcus pneumoniae, sp003, read-out: MIC
[9] = Streptococcus pneumoniae, sp004, read-out: MIC
[10] = Streptococcus pneumoniae, sp005, read-out: MIC
[11] = Streptococcus pneumoniae, sp006, read-out: MIC
[12] = Streptococcus pneumoniae, sp009, read-out: MIC
[13] = Streptococcus pneumoniae, sp117, read-out: MIC
[14] = Streptococcus pneumoniae, sp118, read-out: MIC
[15] = Streptococcus pneumoniae, sp119, read-out: MIC
[16] = Streptococcus pneumoniae, sp120, read-out: MIC
[17] = Streptococcus pneumoniae, sp122, read-out: MIC
[18] = Streptococcus pneumoniae, sp123, read-out: MIC
[19] = Streptococcus pneumoniae, sp125, read-out: MIC
[20] = Streptococcus pneumoniae, sp126, read-out: MIC
[21] = Streptococcus pneumoniae, S. pneumoniae strains, n = 18

T2 sequence (P02919 whole entry): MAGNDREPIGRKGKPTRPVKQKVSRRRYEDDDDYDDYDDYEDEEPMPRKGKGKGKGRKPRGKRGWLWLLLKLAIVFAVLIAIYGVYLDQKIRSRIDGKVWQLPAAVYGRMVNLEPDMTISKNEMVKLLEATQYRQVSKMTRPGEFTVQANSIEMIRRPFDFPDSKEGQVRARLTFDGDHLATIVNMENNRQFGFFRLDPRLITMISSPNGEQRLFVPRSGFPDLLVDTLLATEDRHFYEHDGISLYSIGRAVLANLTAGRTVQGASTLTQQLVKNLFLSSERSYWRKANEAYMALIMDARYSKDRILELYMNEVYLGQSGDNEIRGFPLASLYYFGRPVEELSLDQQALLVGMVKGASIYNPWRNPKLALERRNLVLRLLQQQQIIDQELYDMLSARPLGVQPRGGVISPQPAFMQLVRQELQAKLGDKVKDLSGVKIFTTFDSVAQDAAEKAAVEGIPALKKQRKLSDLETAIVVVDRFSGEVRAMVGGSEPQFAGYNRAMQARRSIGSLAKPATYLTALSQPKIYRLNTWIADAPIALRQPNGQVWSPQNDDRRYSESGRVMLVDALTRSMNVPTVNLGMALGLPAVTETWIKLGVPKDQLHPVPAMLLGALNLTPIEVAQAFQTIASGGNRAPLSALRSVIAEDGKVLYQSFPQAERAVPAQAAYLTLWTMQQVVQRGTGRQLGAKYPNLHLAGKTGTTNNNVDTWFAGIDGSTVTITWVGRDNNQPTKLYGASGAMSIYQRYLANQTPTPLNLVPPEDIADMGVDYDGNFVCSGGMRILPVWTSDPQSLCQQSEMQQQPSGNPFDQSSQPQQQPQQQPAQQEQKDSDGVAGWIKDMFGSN
Sequence of PBP1a (Acinetobacter baumannii, UniProt A0ABX6CK30) (A0ABX6CK30 entry or part of it): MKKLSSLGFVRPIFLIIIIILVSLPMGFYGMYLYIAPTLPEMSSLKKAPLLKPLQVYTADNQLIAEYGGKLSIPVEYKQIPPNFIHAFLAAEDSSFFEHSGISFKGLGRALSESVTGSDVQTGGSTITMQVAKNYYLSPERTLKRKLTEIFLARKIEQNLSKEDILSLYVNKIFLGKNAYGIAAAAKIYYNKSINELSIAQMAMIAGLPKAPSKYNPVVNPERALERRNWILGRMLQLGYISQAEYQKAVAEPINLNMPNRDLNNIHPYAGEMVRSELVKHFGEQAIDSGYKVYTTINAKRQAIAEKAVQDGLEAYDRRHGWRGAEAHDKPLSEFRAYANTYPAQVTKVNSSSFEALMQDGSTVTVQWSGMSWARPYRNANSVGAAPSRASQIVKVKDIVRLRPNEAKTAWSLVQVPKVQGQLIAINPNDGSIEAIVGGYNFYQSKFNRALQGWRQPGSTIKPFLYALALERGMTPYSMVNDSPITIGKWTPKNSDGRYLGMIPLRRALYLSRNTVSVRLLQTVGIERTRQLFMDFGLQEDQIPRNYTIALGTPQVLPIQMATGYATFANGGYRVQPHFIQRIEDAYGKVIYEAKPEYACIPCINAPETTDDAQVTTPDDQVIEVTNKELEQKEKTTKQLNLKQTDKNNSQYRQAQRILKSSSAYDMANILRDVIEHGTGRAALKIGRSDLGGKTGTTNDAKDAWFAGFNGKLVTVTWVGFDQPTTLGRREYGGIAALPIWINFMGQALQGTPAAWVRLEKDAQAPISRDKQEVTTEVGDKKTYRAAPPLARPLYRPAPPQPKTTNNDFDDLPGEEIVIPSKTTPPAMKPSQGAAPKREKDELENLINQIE
T1 sequence (P02918 whole entry): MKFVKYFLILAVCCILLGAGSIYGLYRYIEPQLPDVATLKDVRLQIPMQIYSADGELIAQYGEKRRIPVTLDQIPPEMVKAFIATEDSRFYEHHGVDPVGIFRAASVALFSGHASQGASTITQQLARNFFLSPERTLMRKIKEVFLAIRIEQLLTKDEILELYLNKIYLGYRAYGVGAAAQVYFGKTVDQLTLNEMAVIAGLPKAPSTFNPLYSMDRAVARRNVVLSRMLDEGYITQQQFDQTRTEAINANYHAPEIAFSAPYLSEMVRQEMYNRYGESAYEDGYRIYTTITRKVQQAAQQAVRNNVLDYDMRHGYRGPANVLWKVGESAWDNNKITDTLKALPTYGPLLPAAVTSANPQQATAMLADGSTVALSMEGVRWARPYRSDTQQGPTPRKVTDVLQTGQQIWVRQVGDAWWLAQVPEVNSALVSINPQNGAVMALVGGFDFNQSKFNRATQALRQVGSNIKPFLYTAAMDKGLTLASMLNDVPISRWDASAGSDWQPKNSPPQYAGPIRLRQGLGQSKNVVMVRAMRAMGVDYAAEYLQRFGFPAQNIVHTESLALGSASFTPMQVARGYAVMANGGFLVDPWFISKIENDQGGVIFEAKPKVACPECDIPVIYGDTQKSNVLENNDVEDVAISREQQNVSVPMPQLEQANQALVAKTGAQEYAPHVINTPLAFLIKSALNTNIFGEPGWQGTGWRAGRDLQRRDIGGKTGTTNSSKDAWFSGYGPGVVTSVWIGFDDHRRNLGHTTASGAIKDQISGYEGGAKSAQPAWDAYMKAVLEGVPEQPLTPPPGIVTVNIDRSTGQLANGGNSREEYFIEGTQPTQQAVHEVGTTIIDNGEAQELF
Sequence of PBP3 (Klebsiella pneumoniae, UniProt A0A0H3GN85) (A0A0H3GN85 entry or part of it): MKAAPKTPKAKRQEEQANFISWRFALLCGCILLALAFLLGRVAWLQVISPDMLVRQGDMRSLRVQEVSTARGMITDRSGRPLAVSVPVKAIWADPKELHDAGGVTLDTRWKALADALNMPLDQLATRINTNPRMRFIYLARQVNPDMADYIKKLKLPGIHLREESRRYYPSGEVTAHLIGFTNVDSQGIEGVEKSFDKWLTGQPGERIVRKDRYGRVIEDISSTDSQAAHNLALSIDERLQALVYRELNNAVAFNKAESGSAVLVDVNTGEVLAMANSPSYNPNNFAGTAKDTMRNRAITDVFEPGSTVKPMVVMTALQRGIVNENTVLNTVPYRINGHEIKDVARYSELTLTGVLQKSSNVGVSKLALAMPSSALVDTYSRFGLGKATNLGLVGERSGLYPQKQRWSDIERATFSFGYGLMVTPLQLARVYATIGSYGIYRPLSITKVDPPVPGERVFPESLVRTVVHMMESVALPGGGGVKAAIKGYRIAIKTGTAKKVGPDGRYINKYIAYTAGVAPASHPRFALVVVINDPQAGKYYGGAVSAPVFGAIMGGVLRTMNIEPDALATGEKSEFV
Sequence of PBP2 (A6T696 entry or part of it): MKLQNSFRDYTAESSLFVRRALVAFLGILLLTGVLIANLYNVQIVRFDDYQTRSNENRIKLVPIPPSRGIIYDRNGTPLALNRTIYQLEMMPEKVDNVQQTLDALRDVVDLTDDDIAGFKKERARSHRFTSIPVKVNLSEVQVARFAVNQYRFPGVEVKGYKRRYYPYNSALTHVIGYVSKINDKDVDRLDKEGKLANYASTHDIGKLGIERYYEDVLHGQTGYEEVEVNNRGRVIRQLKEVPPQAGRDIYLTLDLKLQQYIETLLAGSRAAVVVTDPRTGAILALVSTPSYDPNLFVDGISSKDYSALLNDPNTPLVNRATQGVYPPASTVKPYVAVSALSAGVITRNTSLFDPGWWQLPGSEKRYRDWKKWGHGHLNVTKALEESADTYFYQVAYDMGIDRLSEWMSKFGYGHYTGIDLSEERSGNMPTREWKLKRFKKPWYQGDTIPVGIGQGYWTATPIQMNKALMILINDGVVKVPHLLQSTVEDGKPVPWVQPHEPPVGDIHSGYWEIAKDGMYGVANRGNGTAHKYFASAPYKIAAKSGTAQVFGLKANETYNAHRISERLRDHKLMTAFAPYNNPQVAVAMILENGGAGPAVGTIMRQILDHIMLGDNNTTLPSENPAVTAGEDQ
Sequence of PBP1a (Klebsiella pneumoniae, UniProt A0A0H3GZF1) (A0A0H3GZF1 entry or part of it): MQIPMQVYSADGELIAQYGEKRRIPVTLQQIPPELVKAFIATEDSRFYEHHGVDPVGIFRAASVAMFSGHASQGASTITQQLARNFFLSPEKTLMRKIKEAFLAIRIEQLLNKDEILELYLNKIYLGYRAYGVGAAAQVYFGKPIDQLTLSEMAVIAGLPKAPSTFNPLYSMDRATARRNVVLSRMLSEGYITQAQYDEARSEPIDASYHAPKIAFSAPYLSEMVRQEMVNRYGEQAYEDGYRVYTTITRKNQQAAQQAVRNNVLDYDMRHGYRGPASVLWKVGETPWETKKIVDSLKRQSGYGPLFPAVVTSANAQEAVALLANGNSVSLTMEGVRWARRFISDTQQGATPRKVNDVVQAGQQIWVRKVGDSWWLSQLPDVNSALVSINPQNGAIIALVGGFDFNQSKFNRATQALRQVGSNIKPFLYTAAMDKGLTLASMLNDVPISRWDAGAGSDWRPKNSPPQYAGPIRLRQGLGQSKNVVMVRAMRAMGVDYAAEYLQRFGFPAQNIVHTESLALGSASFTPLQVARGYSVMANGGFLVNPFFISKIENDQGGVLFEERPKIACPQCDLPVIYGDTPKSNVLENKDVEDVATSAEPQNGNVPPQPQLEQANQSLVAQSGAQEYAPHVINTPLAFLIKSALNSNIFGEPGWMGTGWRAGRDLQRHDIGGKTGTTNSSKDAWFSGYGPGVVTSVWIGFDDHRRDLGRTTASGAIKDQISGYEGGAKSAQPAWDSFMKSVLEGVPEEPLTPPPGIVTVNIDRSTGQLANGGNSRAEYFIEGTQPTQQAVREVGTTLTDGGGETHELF

C[C@@H](O)[C@H]1C(=O)N2C(C(=O)O)=C(S[C@@H]3CN[C@H](C(=O)N(C)C)C3)[C@H](C)[C@H]12 [Meropenem]
MIC (Streptococcus pneumoniae; Streptococcus pneumoniae): 0.125 µg/mL (≈ 0.326 µM)
MIC (Streptococcus pneumoniae; [6]): ≤ 0.03 µg/mL
MIC (Streptococcus pneumoniae; [7]): ≤ 0.03 µg/mL
MIC (Streptococcus pneumoniae; [8]): ≤ 0.03 µg/mL
MIC (Streptococcus pneumoniae; [9]): 0.25 µg/mL (≈ 0.652 µM)
MIC (Streptococcus pneumoniae; [10]): 0.06 µg/mL (≈ 0.156 µM)
MIC (Streptococcus pneumoniae; [11]): 0.25 µg/mL (≈ 0.652 µM)
MIC (Streptococcus pneumoniae; [12]): 0.25 µg/mL (≈ 0.652 µM)
MIC (Streptococcus pneumoniae; [13]): 0.25 µg/mL (≈ 0.652 µM)
MIC (Streptococcus pneumoniae; [14]): 0.25 µg/mL (≈ 0.652 µM)
MIC (Streptococcus pneumoniae; [15]): 0.25 µg/mL (≈ 0.652 µM)
MIC (Streptococcus pneumoniae; [16]): 0.25 µg/mL (≈ 0.652 µM)
MIC (Streptococcus pneumoniae; [17]): 4 µg/mL (≈ 10.4 µM)
MIC (Streptococcus pneumoniae; [18]): 0.25 µg/mL (≈ 0.652 µM)
MIC (Streptococcus pneumoniae; [19]): 0.25 µg/mL (≈ 0.652 µM)
MIC (Streptococcus pneumoniae; [20]): 0.25 µg/mL (≈ 0.652 µM)
MIC (Streptococcus pneumoniae; sp008): 0.125 µg/mL (≈ 0.326 µM)
MIC (Streptococcus pneumoniae; sp121): 0.125 µg/mL (≈ 0.326 µM)
MIC (Enterococcus faecalis; efs003): 2 µg/mL (≈ 5.22 µM)
MIC (Enterococcus faecalis; efs004): 4 µg/mL (≈ 10.4 µM)
MIC (Enterococcus faecalis; efs005): 4 µg/mL (≈ 10.4 µM)
MIC (Enterococcus faecalis; efs006): 2 µg/mL (≈ 5.22 µM)
MIC (Enterococcus faecalis; efs007): 4 µg/mL (≈ 10.4 µM)
MIC (Enterococcus faecalis; efs026): 2 µg/mL (≈ 5.22 µM)
MIC (Enterococcus faecalis; efs071): 4 µg/mL (≈ 10.4 µM)
MIC (Enterococcus faecalis; efs072): 2 µg/mL (≈ 5.22 µM)
MIC (Enterococcus faecalis; efs073): 4 µg/mL (≈ 10.4 µM)
MIC (Enterococcus faecalis; efs090): 1 µg/mL (≈ 2.61 µM)
MIC (Enterococcus faecalis; efs091): 1 µg/mL (≈ 2.61 µM)
MIC (Enterococcus faecalis; efs092): 8 µg/mL (≈ 20.9 µM)
MIC (Enterococcus faecalis; efs093): 16 µg/mL (≈ 41.7 µM)
MIC (Enterococcus faecalis; efs094): > 32 µg/mL
MIC (Enterococcus faecalis; efs095): 4 µg/mL (≈ 10.4 µM)
MIC (Enterococcus faecalis; efs096): 4 µg/mL (≈ 10.4 µM)
IC50 (PBP1a [1]; read-out: Relative binding IC50, PBP1a; A. baumannii ACM1320 membranes; Bocillin FL step 0°C for xeruborbactam, 30°C for beta-lactams): 0.07 µM
IC50 (PBP1a [2]): 5.4 µM
IC50 (PBP1a [3]; read-out: Relative binding IC50, PBP1a; K. pneumoniae KPM1001 membranes; Bocillin FL step 0°C for xeruborbactam, 30°C for beta-lactams): 6.6 µM
IC50 (PBP1b): 21.1 µM
IC50 (PBP2): 0.003 µM
IC50 (PBP3 [4]; read-out: Relative binding IC50, PBP3; A. baumannii ACM1320 membranes; Bocillin FL step 0°C for xeruborbactam, 30°C for beta-lactams): 0.19 µM
IC50 (PBP3 [5]; read-out: Relative binding IC50, PBP3; K. pneumoniae KPM1001 membranes; Bocillin FL step 0°C for xeruborbactam, 30°C for beta-lactams): 0.24 µM

O=C(O)c1c(F)ccc2c1OB(O)[C@@H]1C[C@H]21 [Xeruborbactam]
MIC (Streptococcus pneumoniae; [6]): 8 µg/mL (≈ 36 µM)
MIC (Streptococcus pneumoniae; [7]): 4 µg/mL (≈ 18 µM)
MIC (Streptococcus pneumoniae; [8]): 4 µg/mL (≈ 18 µM)
MIC (Streptococcus pneumoniae; [9]): > 32 µg/mL
MIC (Streptococcus pneumoniae; [10]): 16 µg/mL (≈ 72.1 µM)
MIC (Streptococcus pneumoniae; [11]): 32 µg/mL (≈ 144 µM)
MIC (Streptococcus pneumoniae; Streptococcus pneumoniae, sp007, read-out: MIC): 16 µg/mL (≈ 72.1 µM)
MIC (Streptococcus pneumoniae; Streptococcus pneumoniae, sp008, read-out: MIC): 32 µg/mL (≈ 144 µM)
MIC (Streptococcus pneumoniae; [12]): 32 µg/mL (≈ 144 µM)
MIC (Streptococcus pneumoniae; [13]): > 32 µg/mL
MIC (Streptococcus pneumoniae; [14]): > 32 µg/mL
MIC (Streptococcus pneumoniae; [15]): 32 µg/mL (≈ 144 µM)
MIC (Streptococcus pneumoniae; [16]): 32 µg/mL (≈ 144 µM)
MIC (Streptococcus pneumoniae; Streptococcus pneumoniae, sp121, read-out: MIC): 32 µg/mL (≈ 144 µM)
MIC (Streptococcus pneumoniae; [17]): > 32 µg/mL
MIC (Streptococcus pneumoniae; [18]): > 32 µg/mL
MIC (Streptococcus pneumoniae; [19]): 32 µg/mL (≈ 144 µM)
MIC (Streptococcus pneumoniae; [20]): > 32 µg/mL
MIC50 (Streptococcus pneumoniae; [21]): 32 µg/mL (≈ 144 µM)
MIC90 (Streptococcus pneumoniae; [21]): > 32 µg/mL
MIC (Enterococcus faecalis; all the E. faecalis strains, n = 16): > 32 µg/mL
MIC (Enterococcus faecalis; efs003): > 32 µg/mL
MIC (Enterococcus faecalis; efs004): > 32 µg/mL
MIC (Enterococcus faecalis; efs005): > 32 µg/mL
MIC (Enterococcus faecalis; efs006): > 32 µg/mL
MIC (Enterococcus faecalis; efs007): > 32 µg/mL
MIC (Enterococcus faecalis; efs026): > 32 µg/mL
MIC (Enterococcus faecalis; efs071): > 32 µg/mL
MIC (Enterococcus faecalis; efs072): > 32 µg/mL
MIC (Enterococcus faecalis; efs073): > 32 µg/mL
MIC (Enterococcus faecalis; efs090): > 32 µg/mL
MIC (Enterococcus faecalis; efs091): > 32 µg/mL
MIC (Enterococcus faecalis; efs092): > 32 µg/mL
MIC (Enterococcus faecalis; efs093): > 32 µg/mL
MIC (Enterococcus faecalis; efs094): > 32 µg/mL
MIC (Enterococcus faecalis; efs095): > 32 µg/mL
MIC (Enterococcus faecalis; efs096): > 32 µg/mL
IC50 (PBP1a [1]; A. baumannii ACM1320 membranes; Bocillin FL step 0°C for xeruborbactam, 30°C for beta-lactams; read-out: Relative binding IC50, PBP1a): 1.4 ± 0.5 µM
IC50 (PBP1a [2]; E. coli ECM5497 membranes, Bocillin FL step 0°C for xeruborbactam, 30°C for beta-lactams, read-out: Relative binding IC50, PBP1a): 47 ± 13 µM
IC50 (PBP1a [3]; K. pneumoniae KPM1001 membranes; Bocillin FL step 0°C for xeruborbactam, 30°C for beta-lactams; read-out: Relative binding IC50, PBP1a): 41 ± 6 µM
IC50 (PBP1b; E. coli ECM5497 membranes, Bocillin FL step 0°C for xeruborbactam, 30°C for beta-lactams, read-out: Relative binding IC50, PBP1b): 56 ± 18 µM
IC50 (PBP2; K. pneumoniae KPM1001 membranes, Bocillin FL step 0°C for xeruborbactam, 30°C for beta-lactams, read-out: Relative binding IC50, PBP2): 51 ± 15 µM
IC50 (PBP3 [4]; A. baumannii ACM1320 membranes; Bocillin FL step 0°C for xeruborbactam, 30°C for beta-lactams; read-out: Relative binding IC50, PBP3): 135 ± 40 µM
IC50 (PBP3 [5]; K. pneumoniae KPM1001 membranes; Bocillin FL step 0°C for xeruborbactam, 30°C for beta-lactams; read-out: Relative binding IC50, PBP3): 55 ± 8 µM
